The text below walks through data of PubChem BioAssay AID602135 (Sanford-Burnham Center for Chemical Genomics, 2011).

What is called IC50 is the concentration that gives 50% inhibition.

Molecules are shown by their SMILES. The source made the active and inactive calls.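 The calls were made as follows: active = mean IC50 under 10 µM against uracil DNA glycosylase, used as a counter screen; inactive = the rest.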

Chain of Uracil-DNA glycosylase (Escherichia coli (strain K12)) (P12295 whole entry, looked up): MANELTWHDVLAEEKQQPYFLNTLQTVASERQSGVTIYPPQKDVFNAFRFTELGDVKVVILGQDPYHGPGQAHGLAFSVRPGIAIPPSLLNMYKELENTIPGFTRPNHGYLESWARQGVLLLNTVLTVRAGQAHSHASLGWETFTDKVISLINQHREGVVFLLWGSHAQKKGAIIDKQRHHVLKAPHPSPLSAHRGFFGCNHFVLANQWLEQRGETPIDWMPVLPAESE

The assay concerns the target Uracil-DNA glycosylase (Escherichia coli (strain K12)) (UniProt P12295). Nature of the assay: uracil-DNA glycosylase cleavage inhibition – biochemical, UDG counterscreen, counter-screen for APOBEC3G deaminase inhibitor project, SAR follow-up (AID 602135). Particulars: FAM/TAMRA oligo fluorescence. A general note: A counterscreen serves to expose hits that act by an unwanted route or on another target.
With `Cc1ccc(C)n1Cc1ccc(C(=O)O)cc1`, the IC50 was > 99 µM (inactive).
Take `CC(=O)c1ccc2c(c1)C1C=CCC1C(C(=O)O)N2` (stereo not given): the IC50 was > 99 µM (inactive).
Take `Cc1ccc2c(c1C)NC(C(=O)O)C1CC=CC21` (stereo not given): the IC50 was > 99 µM (inactive).
As for `Cc1ccc2[nH]cc(/C=C/c3cc[n+](C)cc3)c2c1`, the figure is > 99 µM (inactive).
For the molecule `COc1ccc(-c2nc(=S)[nH][nH]2)cc1`, the IC50 is > 99 µM (inactive).
As for `CC(C(=O)O)N1C(=O)/C(=C/C=C/c2ccco2)SC1=S` (stereo not given), the figure is > 99 µM (inactive).
On to `S=c1[nH]nc(NCCc2ccccc2)s1`, for which the IC50 is > 99 µM (inactive).
For `Cc1ccc[n+](CC(=O)Nc2cc(C(F)(F)F)ccc2N2CCOCC2)c1`, the IC50 is > 99 µM (inactive).
Regarding `CCC(=O)Nc1cccc(-c2nnc(SCC(=O)NCc3ccco3)n2C)c1`, the IC50 was > 99 µM (inactive).
With `Cn1nc([N+](=O)[O-])nc1S(C)(=O)=O`, the IC50 is > 99 µM (inactive).
On to `C[n+]1cccc(C(=O)Nc2ccccc2)c1`, for which the IC50 is > 99 µM (inactive).
Consider `CC1(C)Oc2ccc3ccc(=O)oc3c2/C(=C/NCCO)C1=O`, for which the IC50 is > 99 µM (inactive).
With `CC(C)(C)NC(=O)CSc1nc2ccc(NC(=O)CSc3nnc(N)s3)cc2s1`, the IC50 was > 99 µM (inactive).
With `COc1cc(C=Nn2c(-c3n[nH]c4c3CCC4)n[nH]c2=S)ccc1O`, the IC50 was > 99 µM (inactive).
Then `O=C(NCc1ccc2c(c1)OCO2)c1cc2ncc(Br)cn2n1`, with > 99 µM (inactive); and `CCOC(=O)c1ccc2c(c1)N(C)C(=O)c1ccccc1S2`, with > 99 µM (inactive).
As for `O=C(NCc1ccc2c(c1)OCO2)c1nn2cccnc2c1Cl`, the IC50 was > 99 µM (inactive).
As for `Nn1c(-c2cccc(Br)c2)n[nH]c1=S`, the figure is > 99 µM (inactive); as for `Cc1ccc(-c2csc3n[nH]c(=S)n23)cc1`, > 99 µM (inactive).
`S=c1[nH]nc2c3c4c(sc3ncn12)CCCC4`: the IC50 was > 99 µM (inactive).
Turning to `CCn1ncc(-c2ccnc3cc(C(=O)O)nn23)c1C`, the IC50 is > 99 µM (inactive).
As for `CCCCn1c(=O)c2ccccc2n2c(=S)[nH]nc12`, the figure is > 99 µM (inactive); as for `O=C1NC(=S)NC(=O)C1=Cc1ccc2c(c1)CCN2CCCCl`, > 99 µM (inactive); as for `Cc1ccc(C=Nn2c(-c3ccco3)n[nH]c2=S)s1`, > 99 µM (inactive).
Take `CCCCCn1c(=O)c2ccccc2n2c(=S)[nH]nc12`: the IC50 is > 99 µM (inactive).
